Laboratory results: patent US7786090B2, “Methods and compositions for treating and preventing neurologic disorders” (President and Fellows of Harvard College, priority 2006, dated 2010)
Square brackets hold non-standard residues; d marks the D form. Ends that are not written are not given here. Peptide text beside a SMILES is read from it. * marks the point of attachment. pS = N[C@@H](COP(=O)(O)O)C(=O)O; Cbz = O=C(OCc1ccccc1)*

Columns and labels:
Pin1 = Pin1 (Homo sapiens, UniProt Q13526); conditions: Daum et al. 2006; cited from earlier work
JNK signaling = JNK signaling in cerebellar granule neurons (phosphorylation of c-Jun and BIMEL); type: cell-based, rat; conditions: granule neurons treated for 5 h with 5 μM MG132
Experimental: FIG. 1C is a series of immunoblot photographs. Lysates of cerebellar granule neurons untreated or treated for 5 h with 5 μM MG132 were subjected to a pulldown with GST-Pin1 WW, followed by immunoblotting for BIM. Lower panels show the expression of BIMEL and phosphorylated c-Jun.
The phosphorylation of BIMEL at Ser65 triggers apoptosis specifically in neurons but not in non-neural cells. A critical regulatory post-phosphorylation event is the prolyl isomerization of proteins at sites of proline-dependent phosphorylation. A major function of Pin1 is to drive cells through mitosis in proliferating cells. Pin1 is also highly expressed in the nervous system. To assess whether Pin1 binds to Ser65-phosphorylated BIMEL in vitro, we used a GST pulldown assay. We expressed BIMEL in 293T cells alone or together with a constitutively active form of the kinase MEKK1 (MEKK1Δ), an upstream activator of JNK. Expression of MEKK1Δ results in the robust phosphorylation of BIMEL at Ser65, which is reflected by a mobility shift of BIMEL (FIG. 1A). Recombinant GST-Pin1, but not GST, specifically co-precipitated phosphorylated but not unphosphorylated BIMEL from cell lysates (FIG. 1A). […] In other experiments, we tested if a recombinant GST fusion protein containing the WW domain of Pin1 associates with BIMEL. The WW domain of Pin1 interacts specifically with phosphoSer/Thr-Pro motifs. […]

[1] = tested on: interaction of Pin1 and JIP3; assay: Co-immunoprecipitation of endogenous Pin1 and JIP3 in granule neurons; type: cell-based, rat; conditions: exposure of granule neurons to JNK activating stimuli
Experimental: Lysates from granule neurons that were kept in conditioned full medium (CM) or starved for 2 h (Starv) were immunoprecipitated using a JIP3 antibody, followed by immunoblotting for Pin1. Left panels show the expression of JIP3 and Pin1.
To determine whether the binding of Pin1 to JIP3 is regulated by an apoptotic stimulus, we measured the interaction of endogenous Pin1 and JIP3 in granule neurons that were left in full medium (conditioned medium, CM) or that were starved for two hours.

[2] = target: T1, interaction of Pin1 with JIP3 (Homo sapiens, UniProt Q13526); assay: GST-Pin1 pulldown with increasing Pintide, Pin1-JIP3 interaction; type: binding; design: dose or concentration left out as unconfirmed; conditions: lysates of 293T cells transfected with FLAG-JIP3, Pintide 0, 2.5, 5, 10, 25
T1 construct: made in house; FLAG-JIP3: lysate of transfected 293T cells
Experimental: (§1) FIG. 2G is a series of immunoblot photographs. Lysates of 293T cells transfected with FLAG-JIP3 or FLAG-BIMEL together with FLAG-MEKK1Δ were subjected to a GST-Pin1 pulldown assay in the presence of increasing amount of Pintide peptide ([…]), followed by immunoblotting for FLAG and GST. Representative immunoblots of three independent experiments are shown.
(§2) GST-pulldown assays were performed as described by Ryo et al., Mol. Cell 12: 1413-1426, 2003. Immunoprecipitations and subcellular fractionations were performed as described by Konishi et al., Science 303: 1026-1030, 2004. The postnuclear supernatant was further centrifuged at 10,000 g for 30 min to pellet the mitochondrially-enriched heavy membrane (HM) fraction. Antibodies to BIM (Stressgen); phospho65 BIM antibody (Biosource); HA, HSP60, JIP3, GST (Santa Cruz Biotechnology); FLAG (Sigma); P-c-Jun, MKK7, Pin1 (Cell Signaling); SP1, JNK (Upstate); GFP (Molecular Probes) are available commercially.
(§3) Thus, similar to BIMEL, JIP3 interacts with Pin1 in a phosphorylation-dependent manner.

[3] = target: T2, interaction of Pin1 with BIMEL (Homo sapiens, UniProt Q13526); assay: GST-Pin1 pulldown with increasing Pintide, Pin1-BIMEL interaction; type: binding; conditions: lysates of 293T cells transfected with FLAG-BIMEL and FLAG-MEKK1Δ, Pintide 0, 2.5, 5, 10, 25, 50 mM
T2 construct: made in house; FLAG-BIMEL: lysate of 293T cells co-transfected with FLAG-MEKK1Δ
Experimental: as §1, §2, §3

Pin1, sequence (Q13526 whole entry, species assumed): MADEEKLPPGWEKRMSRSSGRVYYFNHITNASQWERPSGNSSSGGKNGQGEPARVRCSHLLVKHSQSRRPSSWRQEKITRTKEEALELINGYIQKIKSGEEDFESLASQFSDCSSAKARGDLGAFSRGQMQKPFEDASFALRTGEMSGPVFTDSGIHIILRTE
T2 sequence (Q13526 whole entry): as the sequence (Q13526 whole entry, species assumed) above
T1 sequence (Q13526 whole entry): as the sequence (Q13526 whole entry, species assumed) above

Row | Compound | inhibition of Pin1 (Pin1) | interaction of Pin1 and JIP3 [1] | further results
1 | COc1ccc(F)cc1C(=O)C1(C)CCc2ccccc21 (racemic) [rac-9] | inhibit Pin1 |  | 
2 | COc1ccc(F)cc1C(=O)[C@]1(C)CCc2ccccc21 [(R)-9] | inhibit Pin1 |  | 
3 | CC(C)C[C@@H](C=O)NC(=O)[C@H](CC(C)C)NC(=O)[C@H](CC(C)C)NC(=O)OCc1ccccc1 [MG132] (Cbz-Leu-Leu-Leu-aldehyde) |  | led to a decrease | JNK signaling (JNK signaling): activated JNK signaling
4 | OO [hydrogen peroxide] |  | led to a decrease | 
5 | WFYpSPRLKK (WFY[pS]PRLKK) [Pintide] |  |  | disruption of the interaction of Pin1 with JIP3 [2]: disrupted the interaction of Pin1 with JIP3 and BIMEL in a dose-dependent manner; disruption of the interaction of Pin1 with BIMEL [3]: disrupted the interaction of Pin1 with JIP3 and BIMEL in a dose-dependent manner
